Measurements: patent US20200031778A1, “NOVEL 5-SUBSTITUTED IMIDAZOLYLMETHYL DERIVATIVES” (Bayer CropScience Aktiengesellschaft, priority 2016, published 2020)

Experiment: Log P by HPLC on reversed phase columns (EEC directive 79/831 Annex V.A8; methods [a], [b], [c])
Type: physicochemical
Conditions: not given
Protocol: Measurement of Log P values was performed according to EEC directive 79/831 Annex V.A8 by HPLC (High Performance Liquid Chromatography) on reversed phase columns with the following methods: • ^[a] Log P value is determined by measurement of LC-UV, in an acidic range, with 0.1% formic acid in water and acetonitrile as eluent (linear gradient from 10% acetonitrile to 95% acetonitrile). • ^[b] Log P value is determined by measurement of LC-UV, in a neutral range, with 0.001 molar ammonium acetate solution in water and acetonitrile as eluent (linear gradient from 10% acetonitrile to 95% acetonitrile). • ^[c] Log P value is determined by measurement of LC-UV, in an acidic range, with 0.1% phosphoric acid and acetonitrile as eluent (linear gradient from 10% acetonitrile to 95% acetonitrile).
If more than one Log P value is available within the same method, all the values are given and separated by “+”.
Calibration was done with straight-chain alkan2-ones (with 3 to 16 carbon atoms) with known Log P values (measurement of Log P values using retention times with linear interpolation between successive alkanones). Lambda-max-values were determined using UV-spectra from 200 nm to 400 nm and the peak values of the chromatographic signals.

SMILES	LogP
CCCCC(O)(Cn1cncc1C#N)c1ccccc1F (stereo not shown) [I-287]	2.51^[a]
OC(Cn1cncc1Cl)c1ccc(Oc2ccc(Cl)nc2)cc1C(F)(F)F (stereo not shown) [I-19]	2.14^[a]
OC(Cn1cncc1Br)c1ccc(Oc2ccc(Cl)cc2)cc1Cl (stereo not shown) [I-14]	2.60^[a]
Cc1ccc(Oc2ccc(C(C)(O)Cn3cncc3Cl)c(Cl)c2)cc1 (stereo not shown) [I-156]	3.13^[a]
N#Cc1cncn1CC(O)c1ccc(Oc2ccc(Cl)nc2)cc1Cl (stereo not shown) [I-43]	2.37^[a]
CC(O)(Cn1cncc1Cl)c1ccc(Oc2ccc(C(F)(F)F)cc2)cc1C(F)(F)F (stereo not shown) [I-196]	3.01^[a]
CC(C)(C)C(O)(Cn1cncc1C#N)c1ccc(Cl)cn1 (stereo not shown) [I-528]	2.73^[a]
CC(O)(Cn1cncc1Cl)c1ccc(Oc2ccc(Cl)cc2)cc1C(F)(F)F (stereo not shown) [I-168]	2.80^[a]
N#Cc1cncn1CC(O)c1ccccc1Cl (stereo not shown) [I-138]	1.57^[a]
N#Cc1cncn1CC(O)(c1ccc(Cl)nc1F)C1(F)CC1 (stereo not shown) [I-552]	1.96^[a]
CC(C)CC(O)(Cn1cncc1C#N)c1ccccc1C(F)(F)F (stereo not shown) [I-343]	2.88^[a]
CC(C)(C)CC(O)(Cn1cncc1C#N)c1ccc2occc2c1 (stereo not shown) [I-369]	2.88^[a]
OC(Cn1cncc1F)c1ccc(Oc2ccc(C(F)F)cc2)nc1C(F)(F)F (stereo not shown) [I-148]	2.20^[a]
N#Cc1cncn1CC(O)c1cnc(Oc2ccc(Br)nc2)cc1C(F)(F)F (stereo not shown) [I-153]	2.41^[a]
N#Cc1cncn1CC(O)c1ccc(Oc2ccc(C(F)F)cc2)nc1C(F)(F)F (stereo not shown) [I-145]	2.77^[a]
CC(C)(C)C(O)(Cn1cncc1Cl)c1cc2cc(OC(F)(F)F)ccc2o1 (stereo not shown) [I-215]	2.75^[a]
CC(O)(Cn1cncc1Br)c1ccc(Oc2ccc(Br)cc2)cc1Br (stereo not shown) [I-184]	3.06^[a]
CC(O)(Cn1cncc1C#N)c1cnc(Oc2ccc(C(F)F)cc2)cc1C(F)(F)F (stereo not shown) [I-341]	2.80^[a]
N#Cc1cncn1CC(O)(c1cnc(Br)cc1Cl)C1(F)CC1 (stereo not shown) [I-686]	1.97^[a]
N#Cc1cncn1CC(O)c1ccc(Oc2ccc(Cl)cc2)cc1C(F)F (stereo not shown) [I-72]	3.09^[a]
OC(Cn1cncc1Cl)c1ccc(Oc2ccc(F)cc2)cc1Cl (stereo not shown) [I-03]	2.28^[a]

SMILES	LogP
OC(Cn1cncc1Cl)c1ccc(Oc2ccc(I)cc2)cc1Cl (stereo not shown) [I-08]	2.94^[a]
OC(Cn1cncc1Br)c1ccc(Oc2ccc(Cl)nc2)nc1Cl (stereo not shown) [I-17]	1.69^a
OC(Cn1cncc1Cl)c1ccc(Oc2ccccc2)cc1F (stereo not shown) [I-30]	1.99^[a]
OC(Cn1cncc1Cl)c1ccc(Oc2ccc(Br)nc2)cc1Cl (stereo not shown) [I-77]	1.92^[a]
N#Cc1cncn1CC(O)c1ccc(Oc2ccc(Cl)cc2)cc1C(F)(F)F (stereo not shown) [I-41]	3.35^[a]
N#Cc1cncn1CC(O)(c1ccccc1C(F)(F)F)C1CC1 (stereo not shown) [I-330]	2.35^[a]
CC(O)(Cn1cncc1Br)c1ccc(Oc2ccc(Br)cc2)cc1Cl (stereo not shown) [1-174]	2.96^[a]
COC(Cn1cncc1C(F)(F)F)c1ccc(Oc2ccc(Cl)cc2)cc1F (stereo not shown) [I-93]	4.34^[a]
C[Si](C)(C)CC(O)(Cn1cncc1C#N)c1ccc(F)cc1 (stereo not shown) [I-227]	3.05^[a]
COC(Cn1cncc1C#N)c1ccc(Oc2ccc(Cl)cc2)cc1Br (stereo not shown) [I-61]	4.08^[a]
N#Cc1cncn1CC(O)c1cnc(Oc2ccc(C(F)F)cc2)cc1C(F)(F)F (stereo not shown) [I-115]	2.80^[a]
CCCC(C)C=CC(O)(Cn1cncc1C#N)C1(Cl)CC1 (stereo not shown) [I-689]	3.41^[a]
CC(O)(Cn1cncc1C#N)c1ccc(Oc2ccc(Cl)cc2)cc1Cl (stereo not shown) [I-182]	3.51^[a]
CC(O)(Cn1cncc1Br)c1ccc(Oc2ccc(Cl)cc2)cc1C(F)(F)F (stereo not shown) [I-193]	2.76^[a]
N#Cc1cncn1CC(O)c1ccc(Oc2ccc(Cl)cn2)cc1Cl (stereo not shown) [I-69]	2.54 ^[a]
N#Cc1cncn1CC(O)(CC1CCCCC1)c1ccc(F)cc1Br (stereo not shown) [I-465]	3.78^[a]
OC(Cn1cncc1Cl)c1cnc(Oc2ccc(Cl)cc2)cc1C(F)(F)F (stereo not shown) [I-25]	2.55^[a]
CC(=O)c1cncn1CC(C)(O)c1cnc(Oc2ccc(C(F)(F)F)cc2)cc1Cl (stereo not shown) [I-246]	2.76^[a]
CCCC(O)(Cn1cncc1C#N)c1ccc(Br)cc1Cl (stereo not shown) [I-423]	3.19^[a]
CC(C)(C)CC(O)(Cn1cncc1C#N)c1ccccc1 (stereo not shown) [I-242]	2.77^[a]

Further lines, results first:

LogP	SMILES
2.02^[a]	N#Cc1cncn1CC(O)(c1cc(F)ccc1F)C1(F)CC1 (stereo not shown) [I-523]
2.54^[a]	N#Cc1cncn1CC(O)(c1cc(Cl)cc(F)c1F)C1(Cl)CC1 (stereo not shown) [I-611]
2.11^[a]	N#Cc1cncn1CC(O)(C#CC1CC1)C1(Cl)CC1 (stereo not shown) [I-692]
3.02^[a]	CC(C)C(O)(Cn1cncc1C#N)c1ccc(Br)cc1Cl (stereo not shown) [I-422]
3.29^[a]	CCC(C)C(O)(Cn1cncc1C#N)c1ccc(Cl)cc1Cl (stereo not shown) [I-314]
3.11^[a]	CC(C)C(O)(Cn1cncc1C#N)c1ccc(C(F)(F)F)cc1Cl (stereo not shown) [I-426]
2.54^[a]	N#Cc1cncn1CC(O)(c1cc(Cl)c(F)cc1Cl)C1(F)CC1 (stereo not shown) [I-575]
2.66^[a]	CCC(O)(Cn1cncc1C#N)c1ccc(Cl)cc1Cl (stereo not shown) [I-301]
2.57^[a]	N#Cc1cncn1CC(O)(c1ccc(Cl)cc1F)C1(Cl)CC1 (stereo not shown) [I-358]
3.09^[a]	Cc1ccc(C)c(C#CC(O)(Cn2cncc2C#N)C2(Cl)CC2)c1 (stereo not shown) [I-298]
2.73^[a]	N#Cc1cncn1CC(O)(c1ccc(Br)cc1Cl)C1(Cl)CC1 (stereo not shown) [I-333]
3.42^[a]	N#Cc1cncn1CC(O)(c1ccc(Cl)cc1F)C1CCCCC1 (stereo not shown) [I-482]
2.73^[a]	CCCC(O)(Cn1cncc1C#N)c1ccc(F)cc1Cl (stereo not shown) [I-402]
2.49^[a]	N#Cc1cncn1CC(O)(c1c(F)cc(F)cc1Br)C1(Cl)CC1 (stereo not shown) [I-566]
2.21^[a]	N#Cc1cncn1CC(O)(c1cccc(Cl)c1F)C1(F)CC1 (stereo not shown) [I-558]
2.47^[a]	N#Cc1cncn1CC(O)(c1cc(Br)c(F)cc1F)C1(F)CC1 (stereo not shown) [I-573]
2.45^[a]	N#Cc1cncn1CC(O)(c1cc(Br)ccc1Cl)C1(F)CC1 (stereo not shown) [I-633]
2.29^[a]	N#Cc1cncn1CC(O)(c1cc(F)cc(Cl)c1F)C1(F)CC1 (stereo not shown) [I-613]
1.76^[a]	N#Cc1cncn1CC(O)(CC1CC1)c1ccc(F)cc1F (stereo not shown) [I-414]
2.26^[a]	N#Cc1cncn1CC(O)(c1cc(F)cc(F)c1Cl)C1(F)CC1 (stereo not shown) [I-569]
3.29^[a]	CC(O)(Cn1cncc1C#N)c1cnc(Oc2ccc(Cl)cc2F)cc1C(F)(F)F (stereo not shown) [I-233]

LogP	SMILES
2.90^[a]	CC(C)(C)C(O)(Cn1cncc1C#N)c1ccc(F)c(Cl)c1 (stereo not shown) [I-455]
1.99^[a]	N#Cc1cncn1CC(O)(CC1CC1)C1(F)CC1 (stereo not shown) [I-504]
3.35^[a]	CCCCC(O)(Cn1cncc1C#N)c1ccc(C(F)(F)F)cc1F (stereo not shown) [I-267]
2.54'^[a]	N#Cc1cncn1CC(O)(CCCC(Cl)CCl)C1(F)CC1 (stereo not shown) [I-678]
2.74^[a]	CC(C)(C)C(O)(Cn1cncc1C#N)c1ccc(Cl)cc1 (stereo not shown) [I-284]
2.47^[a]	N#Cc1cncn1CC(O)(c1c(F)ccc(Cl)c1F)C1(Cl)CC1 (stereo not shown) [I-622]
2.23^[a]	N#Cc1cncn1CC(O)(c1c(F)ccc(F)c1F)C1(Cl)CC1 (stereo not shown) [I-615]
2.54^[a]	N#Cc1cncn1CC(O)(c1cc(F)c(Cl)c(F)c1)C1(F)CC1 (stereo not shown) [I-475]
2.50^[a]	N#Cc1cncn1CC(O)(c1ccc(Cl)cc1F)C1CC1 (stereo not shown) [I-413]
2.33^[a]	N#Cc1cncn1CC(O)(c1cc(F)cc(F)c1Cl)C1(Cl)CC1 (stereo not shown) [I-619]
2.65^[a]	N#Cc1cncn1CC(O)(c1cc(F)c(Cl)cc1Br)C1(F)CC1 (stereo not shown) [I-525]
3.31^[a]	N#Cc1cncn1CC(O)(CCc1ccc(OC(F)(F)F)c(F)c1)C1(Cl)CC1 (stereo not shown) [I-359]
4.03^[a]	C[Si](C)(C)C#Cc1ccc(C(O)(Cn2cncc2C#N)C2(Cl)CC2)c(F)c1 (stereo not shown) [I-650]
2.46^[a]	N#Cc1cncn1CC(O)(c1ccc(F)cc1Br)C1CC1 (stereo not shown) [I-398]
2.60^[a]	CC(C)C(O)(Cn1cncc1C#N)c1ccc(F)cc1Cl (stereo not shown) [I-425]
1.78^[a]	CC(C)C(O)(Cn1cncc1C#N)C1(F)CC1 (stereo not shown) [I-380]
2.78^[a]	N#Cc1cncn1CC(O)(c1ccc(S(F)(F)(F)(F)F)cc1)C1(F)CC1 (stereo not shown) [I-379]
3.27^[a]	Cc1ccc(C(O)(Cn2cncc2C#N)C2(Cl)CC2)cc1C1(C(F)(F)F)CC1 (stereo not shown) [I-212]
4.24^[a]	C[Si](C)(C)C#Cc1ccc(C(O)(Cn2cncc2C#N)C2(Cl)CC2)c(Cl)c1 (stereo not shown) [I-366]
2.42^[a]	N#Cc1cncn1CC(O)(c1cc(Cl)c(F)cc1F)C1(F)CC1 (stereo not shown) [I-577]
2.74^[a]	N#Cc1cncn1CC(O)(c1ccc(C2CC2)cc1Cl)C1(F)CC1 (stereo not shown) [I-392]

Same assay, conditions: HPLC on reversed phase columns, method [a]

SMILES	chromatographic logP
C[Si](C)(C)C#CCOc1ccc(C(O)(Cn2cncc2C#N)C2(F)CC2)c(F)c1 (stereo not shown) [I-415, 3-[2-(1-fluorocyclopropyl)-2-[2-fluoro-4-(3-trimethylsilylprop-2-ynoxy)phenyl]-2-hydroxy-ethyl]imidazole-4-carbonitrile]	3.68

Same assay, conditions: reversed phase HPLC column; method [a]: LC-UV, acidic range, 0.1% formic acid in water and acetonitrile as eluent (linear gradient from 10% to 95% acetonitrile)

chromatographic logP	SMILES
3.21	CC(=O)c1cncn1CC(=O)c1cnc(Oc2ccc(Cl)cc2F)cc1C(F)(F)F [IX-102]
0.92	N#Cc1cncn1CC(=O)c1ccco1 [IX-146]
1.32	O=C(Cn1cncc1Br)c1ccc(F)cc1F [IX-121]
0.97	O=C(Cn1cncc1Cl)c1ccc(O)cc1Cl [IX-145]
